Calls of active or inactive are those of the source.
Columns and labels:
[1] = Vero E6 cell cytotoxicity, dose response, cytotoxicity control for non-replicating M. tuberculosis project, secondary assay (AID 492998); type: functional, VeroE6; details: Vero C1008
[2] = THP-1 cell cytotoxicity, dose response, cytotoxicity control for non-replicating M. tuberculosis project (AID 489025); type: functional
[3] = tested on: Streptococcus; experiment: Group A Streptococcus viability loss, dose response, counter-screen for streptokinase expression inhibitor project, luminescence, BacTiterGlo (AID 1915); type: functional, organism-based;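 note: potency for reduction of bacterial viability or growth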
[4] = tested on: Streptococcus sp. 'group A'; experiment: growth inhibition of control SK(-) GAS strain, dose response, counter-screen for streptokinase expression inhibitor project, luminescence, kanamycin, BacTiterGlo, confirmation (AID 1900); type: functional, organism-based
[5] = cells; type: functional
[6] = HepG2 cell cytotoxicity, dose response, cytotoxicity control for non-replicating M. tuberculosis project (AID 489018); type: functional; details: Mycobacterium tuberculosis
[7] = target: T1, CAAX prenyl protease 2 (Saccharomyces cerevisiae S288c, UniProt Q03530); type: biochemical
T1 sequence (Q03530 whole entry): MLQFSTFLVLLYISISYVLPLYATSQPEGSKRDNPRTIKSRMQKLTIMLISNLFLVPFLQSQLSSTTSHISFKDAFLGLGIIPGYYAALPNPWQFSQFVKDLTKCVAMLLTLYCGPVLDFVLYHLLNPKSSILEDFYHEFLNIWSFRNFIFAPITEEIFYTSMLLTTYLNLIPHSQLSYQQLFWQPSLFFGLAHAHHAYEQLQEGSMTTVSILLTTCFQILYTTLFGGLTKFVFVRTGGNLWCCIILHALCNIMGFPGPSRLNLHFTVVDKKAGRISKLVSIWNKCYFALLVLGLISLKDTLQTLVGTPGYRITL

[8] = target: Beta-galactosidase (Escherichia coli, UniProt Q8VNN2); experiment: Dose response counterscreen for EBI2 assay utilizing the enzyme, b-galactosidase.; type: functional
Chain of Beta-galactosidase (Q8VNN2 whole entry): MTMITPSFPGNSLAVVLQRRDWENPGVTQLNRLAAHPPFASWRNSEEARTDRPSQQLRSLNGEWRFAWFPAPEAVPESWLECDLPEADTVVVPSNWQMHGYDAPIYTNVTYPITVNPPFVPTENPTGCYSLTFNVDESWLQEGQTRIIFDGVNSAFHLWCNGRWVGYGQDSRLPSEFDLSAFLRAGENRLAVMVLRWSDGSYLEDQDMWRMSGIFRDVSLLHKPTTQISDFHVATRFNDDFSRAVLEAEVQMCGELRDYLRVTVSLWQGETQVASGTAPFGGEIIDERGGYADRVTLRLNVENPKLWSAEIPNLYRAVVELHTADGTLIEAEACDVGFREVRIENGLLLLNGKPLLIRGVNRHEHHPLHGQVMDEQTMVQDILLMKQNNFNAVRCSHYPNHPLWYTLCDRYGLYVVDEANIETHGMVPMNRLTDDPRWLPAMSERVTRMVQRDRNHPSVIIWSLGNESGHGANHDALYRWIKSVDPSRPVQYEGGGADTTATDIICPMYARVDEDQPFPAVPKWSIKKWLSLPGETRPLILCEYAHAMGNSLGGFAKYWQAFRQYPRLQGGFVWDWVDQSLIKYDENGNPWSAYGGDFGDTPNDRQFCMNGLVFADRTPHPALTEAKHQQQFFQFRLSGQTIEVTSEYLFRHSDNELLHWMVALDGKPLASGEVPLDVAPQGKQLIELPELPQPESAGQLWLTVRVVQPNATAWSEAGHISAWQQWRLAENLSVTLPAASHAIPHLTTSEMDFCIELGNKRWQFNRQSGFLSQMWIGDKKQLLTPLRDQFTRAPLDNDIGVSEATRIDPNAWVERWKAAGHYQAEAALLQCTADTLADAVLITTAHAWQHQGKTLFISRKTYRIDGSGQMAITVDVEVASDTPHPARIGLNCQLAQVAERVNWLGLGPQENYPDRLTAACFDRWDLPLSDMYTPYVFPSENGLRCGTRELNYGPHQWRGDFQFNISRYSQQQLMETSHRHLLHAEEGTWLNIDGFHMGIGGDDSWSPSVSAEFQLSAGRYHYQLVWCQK

[9] = target: Trypsin (Sus scrofa, UniProt P00761); experiment: porcine trypsin inhibitors, dose response, selectivity assay for Rce1 protease inhibitor project, biochemical, quenched peptide fluorescence, cherry-pick (AID 488789)
Chain of Trypsin (P00761 whole entry): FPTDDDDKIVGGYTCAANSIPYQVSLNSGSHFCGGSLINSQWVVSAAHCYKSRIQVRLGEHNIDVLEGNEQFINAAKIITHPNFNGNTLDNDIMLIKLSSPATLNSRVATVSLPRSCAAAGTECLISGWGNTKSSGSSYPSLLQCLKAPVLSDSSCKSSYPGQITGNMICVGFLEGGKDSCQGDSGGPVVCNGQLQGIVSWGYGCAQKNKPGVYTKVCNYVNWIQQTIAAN

[10] = target: Troponin, cardiac muscle (Homo sapiens, UniProt P19429+P45379+P63316); experiment: Fluorescence-based biochemical high throughput dose response assay for activators of the calcium sensitivity of cardiac Regulated Thin Filaments (RTF). [Related pubchem assays (depositor defined):AID493008, AID493018, AID504382, AID504383]; type: protein-complex assay
[11] = cells; type: functional, cell-based; details: HEK-CNG
[12] = target: T2, Corticotropin-releasing factor receptor 2/Corticotropin-releasing factor-binding protein (Homo sapiens, UniProt P24387+Q13324); experiment: activators of CRF receptor 2 with binding protein – uHTS hits, confirmation (AID 602473); type: functional; details: read-out: EC50_Mean
T2 sequence (Q13324 whole entry): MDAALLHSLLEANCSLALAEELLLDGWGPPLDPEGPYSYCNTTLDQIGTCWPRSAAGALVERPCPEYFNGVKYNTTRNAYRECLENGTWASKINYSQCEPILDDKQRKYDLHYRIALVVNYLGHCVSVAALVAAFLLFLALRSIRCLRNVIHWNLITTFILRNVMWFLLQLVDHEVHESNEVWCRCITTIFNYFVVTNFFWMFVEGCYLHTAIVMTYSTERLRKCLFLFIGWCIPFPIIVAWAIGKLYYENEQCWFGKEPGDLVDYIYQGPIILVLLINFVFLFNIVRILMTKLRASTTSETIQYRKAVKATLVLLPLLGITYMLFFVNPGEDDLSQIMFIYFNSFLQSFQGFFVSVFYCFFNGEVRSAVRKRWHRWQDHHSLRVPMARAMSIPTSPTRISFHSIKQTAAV
T2 sequence (P24387 whole entry): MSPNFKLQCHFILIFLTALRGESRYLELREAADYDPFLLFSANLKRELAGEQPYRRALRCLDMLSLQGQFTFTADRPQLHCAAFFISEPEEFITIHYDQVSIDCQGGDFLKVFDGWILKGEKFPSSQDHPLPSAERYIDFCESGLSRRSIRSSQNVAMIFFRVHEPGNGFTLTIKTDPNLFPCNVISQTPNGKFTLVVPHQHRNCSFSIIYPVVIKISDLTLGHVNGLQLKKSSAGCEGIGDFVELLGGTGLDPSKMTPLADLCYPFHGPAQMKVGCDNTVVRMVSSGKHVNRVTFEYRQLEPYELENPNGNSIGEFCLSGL

[13] = target: T3, Galanin receptor type 3 (Homo sapiens, UniProt O60755); experiment: Fluorescence-based cell-based primary high throughput dose response assay to identify antagonists of the Galanin Receptor 3 (GalR3).; type: functional
T3 sequence (O60755 whole entry): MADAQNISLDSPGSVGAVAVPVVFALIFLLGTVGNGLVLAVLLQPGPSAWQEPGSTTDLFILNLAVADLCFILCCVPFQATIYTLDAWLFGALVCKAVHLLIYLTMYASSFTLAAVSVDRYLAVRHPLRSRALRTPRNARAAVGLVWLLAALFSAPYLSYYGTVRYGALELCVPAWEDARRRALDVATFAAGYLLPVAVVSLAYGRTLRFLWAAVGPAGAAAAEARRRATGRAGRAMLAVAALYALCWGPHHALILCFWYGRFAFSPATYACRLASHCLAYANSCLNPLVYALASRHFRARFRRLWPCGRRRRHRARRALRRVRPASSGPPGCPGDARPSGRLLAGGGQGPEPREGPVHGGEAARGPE

[14] = target: T4, Heat shock factor protein 1 (Mus musculus, UniProt P38532); experiment: HSF1 potentiators in luciferase reporter cells, confirmation, cell-based, NIH3T3, luminescence, dose retest (AID 435004); type: functional;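 note: stress induced by proteasome inhibitor MG132 added 30 min after compound; luciferase reporter driven by HSF1 response element in NIH3T3 cells; actives raise luminescence as potentiators of the MG132 stress response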
T4 sequence (P38532 whole entry): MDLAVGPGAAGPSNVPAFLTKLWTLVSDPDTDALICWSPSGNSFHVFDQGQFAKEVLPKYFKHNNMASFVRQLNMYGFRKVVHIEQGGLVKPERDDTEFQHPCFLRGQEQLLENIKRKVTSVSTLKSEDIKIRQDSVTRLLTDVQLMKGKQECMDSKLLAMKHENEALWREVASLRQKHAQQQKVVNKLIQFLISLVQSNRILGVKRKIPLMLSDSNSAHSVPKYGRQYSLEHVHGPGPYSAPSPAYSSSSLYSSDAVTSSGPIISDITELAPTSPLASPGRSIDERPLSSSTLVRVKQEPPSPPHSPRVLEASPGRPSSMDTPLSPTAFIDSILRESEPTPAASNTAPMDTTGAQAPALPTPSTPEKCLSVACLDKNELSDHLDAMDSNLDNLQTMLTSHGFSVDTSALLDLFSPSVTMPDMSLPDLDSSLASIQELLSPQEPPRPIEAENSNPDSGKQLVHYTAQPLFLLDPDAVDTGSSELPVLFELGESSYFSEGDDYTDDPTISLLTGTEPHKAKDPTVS

[15] = A cytotoxicity screen of small molecule inhibitors of the PhoP region in Salmonella typhi identified in the primary screen. [Related pubchem assays: 1850, 1864, 1985 ]; type: functional
[16] = target: T5, Microphthalmia-associated transcription factor (Homo sapiens, UniProt O75030); experiment: TRPM1 promoter luciferase signal decrease, dose response, MITF inhibitor project, cell-based, SK-MEL-5, cherry-picked, set 3 (AID 493073); type: functional
T5 sequence (O75030 whole entry): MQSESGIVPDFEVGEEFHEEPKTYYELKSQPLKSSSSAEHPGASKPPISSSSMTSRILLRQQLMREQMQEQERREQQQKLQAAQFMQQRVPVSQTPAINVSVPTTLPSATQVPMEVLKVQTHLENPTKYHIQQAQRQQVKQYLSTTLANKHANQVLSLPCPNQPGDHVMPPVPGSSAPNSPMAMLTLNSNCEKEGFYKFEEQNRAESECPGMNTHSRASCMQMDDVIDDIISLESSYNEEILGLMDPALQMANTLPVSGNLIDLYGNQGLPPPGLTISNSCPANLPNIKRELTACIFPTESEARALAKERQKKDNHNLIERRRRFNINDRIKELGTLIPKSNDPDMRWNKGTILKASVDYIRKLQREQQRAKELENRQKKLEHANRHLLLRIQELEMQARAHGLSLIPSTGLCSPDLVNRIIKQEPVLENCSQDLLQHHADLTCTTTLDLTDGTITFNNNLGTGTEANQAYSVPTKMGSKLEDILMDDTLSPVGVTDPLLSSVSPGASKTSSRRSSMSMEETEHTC

[17] = target: T6, Protein skinhead-1 (Caenorhabditis elegans, UniProt P34707); type: functional
T6 sequence (P34707 whole entry): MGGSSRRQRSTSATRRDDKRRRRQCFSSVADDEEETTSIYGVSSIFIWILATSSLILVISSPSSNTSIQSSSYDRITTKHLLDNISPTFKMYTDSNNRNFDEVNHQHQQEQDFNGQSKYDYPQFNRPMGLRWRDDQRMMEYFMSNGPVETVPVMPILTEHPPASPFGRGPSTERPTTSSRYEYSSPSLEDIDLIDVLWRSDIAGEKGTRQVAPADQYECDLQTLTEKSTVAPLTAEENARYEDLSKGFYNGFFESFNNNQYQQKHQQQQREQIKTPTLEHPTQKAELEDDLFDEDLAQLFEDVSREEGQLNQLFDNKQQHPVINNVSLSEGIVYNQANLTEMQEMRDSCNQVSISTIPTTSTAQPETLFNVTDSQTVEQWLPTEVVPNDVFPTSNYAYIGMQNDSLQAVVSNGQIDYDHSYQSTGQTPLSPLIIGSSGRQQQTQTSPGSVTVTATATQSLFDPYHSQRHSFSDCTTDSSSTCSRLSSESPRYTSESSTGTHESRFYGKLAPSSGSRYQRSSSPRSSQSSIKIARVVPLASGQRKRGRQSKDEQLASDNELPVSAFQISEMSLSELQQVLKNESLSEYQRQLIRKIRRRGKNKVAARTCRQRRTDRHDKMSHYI

[18] = target: T7, Alkaline phosphatase, tissue-nonspecific isozyme (Homo sapiens, UniProt P05186); experiment: human TNAP enzyme inhibitors, SAR follow-up, biochemical, luminescent, dose response (AID 1056)
T7 sequence (P05186 whole entry): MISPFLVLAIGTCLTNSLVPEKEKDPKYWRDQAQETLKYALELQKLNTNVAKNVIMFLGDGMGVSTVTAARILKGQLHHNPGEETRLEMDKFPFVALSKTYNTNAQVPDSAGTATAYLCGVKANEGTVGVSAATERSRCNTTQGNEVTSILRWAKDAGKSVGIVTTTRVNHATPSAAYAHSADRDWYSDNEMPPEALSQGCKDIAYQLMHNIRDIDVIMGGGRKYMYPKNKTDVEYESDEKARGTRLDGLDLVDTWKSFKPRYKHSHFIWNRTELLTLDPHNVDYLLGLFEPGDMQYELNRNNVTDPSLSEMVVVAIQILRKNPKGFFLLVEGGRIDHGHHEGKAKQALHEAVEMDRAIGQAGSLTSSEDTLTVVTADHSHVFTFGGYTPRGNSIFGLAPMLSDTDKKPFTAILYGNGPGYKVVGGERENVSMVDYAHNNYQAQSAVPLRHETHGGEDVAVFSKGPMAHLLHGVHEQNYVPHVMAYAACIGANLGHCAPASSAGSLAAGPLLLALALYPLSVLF

[19] = target: Alkaline phosphatase, placental type (Homo sapiens, UniProt P05187); experiment: PLAP enzyme inhibitors, confirmation, biochemical, luminescence (AID 1512); type: functional
Chain of Alkaline phosphatase, placental type (P05187 whole entry): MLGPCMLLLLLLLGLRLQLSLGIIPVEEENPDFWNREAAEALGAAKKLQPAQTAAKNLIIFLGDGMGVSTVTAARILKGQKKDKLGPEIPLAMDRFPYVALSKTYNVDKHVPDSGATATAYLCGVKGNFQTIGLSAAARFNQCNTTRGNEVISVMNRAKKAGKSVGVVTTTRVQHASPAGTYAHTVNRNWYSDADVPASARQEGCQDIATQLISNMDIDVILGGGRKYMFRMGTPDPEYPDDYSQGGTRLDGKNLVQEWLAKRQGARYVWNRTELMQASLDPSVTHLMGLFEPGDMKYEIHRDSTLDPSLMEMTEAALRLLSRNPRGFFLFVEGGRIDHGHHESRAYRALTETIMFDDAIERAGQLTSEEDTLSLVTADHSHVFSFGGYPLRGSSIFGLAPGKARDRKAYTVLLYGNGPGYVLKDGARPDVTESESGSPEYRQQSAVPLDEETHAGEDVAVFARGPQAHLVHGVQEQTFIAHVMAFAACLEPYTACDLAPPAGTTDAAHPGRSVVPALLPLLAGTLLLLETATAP

[20] = NIH-3T3 fibroblast cytotoxicity, dose response, cytotoxicity control, cell-based, fluorescence, Alamar Blue, secondary assay (AID 2327); type: functional;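 note: NIH-3T3 mouse fibroblasts cultured with fluconazole at 8 µg/mL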
[21] = C. albicans growth with fluconazole, confirmation, fluorescence, retest (AID 2467); type: functional, cell-based
[22] = target: Glyceraldehyde-3-phosphate dehydrogenase (Homo sapiens, UniProt P04406)
Chain of Glyceraldehyde-3-phosphate dehydrogenase (P04406 whole entry): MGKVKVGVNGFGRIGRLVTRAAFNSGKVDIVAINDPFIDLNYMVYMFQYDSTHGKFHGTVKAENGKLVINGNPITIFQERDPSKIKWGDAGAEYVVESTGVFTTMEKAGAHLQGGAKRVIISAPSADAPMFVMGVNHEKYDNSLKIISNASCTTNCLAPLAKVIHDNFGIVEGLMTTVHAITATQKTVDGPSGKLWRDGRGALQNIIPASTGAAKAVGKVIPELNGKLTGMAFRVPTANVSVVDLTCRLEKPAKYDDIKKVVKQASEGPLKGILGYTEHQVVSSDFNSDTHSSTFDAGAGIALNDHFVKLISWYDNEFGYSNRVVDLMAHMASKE

SMILES: CCOC(=O)Cc1c(C)nc2c(-c3cccc(Br)c3)cnn2c1O
- CC50 [1]: 8.15 µM (active)
- CC50 [2]: 11.9 µM (active)
- EC50 [3]: 6.07 µM (active)
- EC50 [4]: 3.46 µM (active)
- IC50 [5]: 3.08 µM (active)
- CC50 [6]: 16.4 µM (active)

SMILES: COc1ccc(C(C(=O)NC2CCCCC2)N(C(=O)c2snc(C(N)=O)c2N)c2ccc(OC)cc2OC)cc1 (stereo not given)
- AC50 [7]: 22.1 µM (active)
- IC50 [8]: > 80 µM (inactive)
- AC50 [9]: 21.6 µM (active)

SMILES: Cc1cc(NC(=O)COC(=O)C(Cc2ccccc2)NC(=O)c2ccco2)no1 (stereo not given)
- EC50 [10]: > 71.5 µM (inactive)
- EC50 [11]: > 29.9 µM (inactive)
- EC50 [12]: 4.49 µM (active)
- IC50 [13]: > 29.9 µM (inactive)

SMILES: CCOC(=O)c1sc2nc(C)nc(SCC(=O)NC3CCS(=O)(=O)C3)c2c1C (stereo not given)
- EC50 [14]: > 260 µM (inactive)
- EC50 [10]: > 71.5 µM (inactive)

SMILES: O=C(Cn1cc(/C=C\[N+](=O)[O-])c2ccccc21)Nc1ccccc1
- EC50 [15]: > 50 µM (active)
- AC50 [16]: 7.45 µM (active)

SMILES: CCN(CC)c1ccc(/C=c2\sc3nc4ccccc4n3c2=O)c(O)c1
- EC50 [10]: 2.78 µM (active)
- IC50 [17]: > 100 µM (inactive)

SMILES: O=C(CN1CCCCC1)c1ccc(O)c(O)c1
- IC50 [18]: 43.2 µM (active)
- IC50 [19]: 67.5 µM (active)

SMILES: O=C1CCN(Cc2ccccc2)CCN1[C@H](CSc1ccccc1)Cc1ccccc1
- AC50 [7]: 13.9 µM (active)

SMILES: COc1cc(OC)cc(C(=O)Oc2c(CN3CCOCC3)cc(Cl)c3cccnc23)c1
- CC50 [1]: 3.74 µM (active)
- CC50 [2]: 7.27 µM (active)
- EC50 [20]: > 150 µM (inconclusive)
- EC50 [21]: 2.94 µM (active)
- IC50 [5]: 15.4 µM (active)
- CC50 [6]: 17 µM (active)

SMILES: COc1ccc(OC)c(NS(=O)(=O)c2cccc3cccnc23)c1
- IC50 [18]: > 100 µM (inactive)
- IC50 [22]: > 100 µM (not active)

— ChEMBL document CHEMBL1201862, “PubChem BioAssay data set” (2004)
